Measurements: publication PMC6704710, “Preclinical evaluation of 3D185, a novel potent inhibitor of FGFR1/2/3 and CSF-1R, in FGFR-dependent and macrophage-dominant cancer models” (Journal of Experimental & Clinical Cancer Research : CR, 2019)

Tests used:
Assay type in all cases: biochemical
FGFR1(V561M)(h) = FGFR1(V561M)(h) (Homo sapiens, UniProt P11362, V561M); assay: Eurofins kinase panel
FGFR2(N549H)(h) = FGFR2(N549H)(h) (Homo sapiens, UniProt P21802, N549H); assay: Eurofins kinase panel
CDK12/cyclinK(h) = biological target: T1, CDK12/cyclinK(h) (Homo sapiens, UniProt Q9NYV4); assay: Eurofins kinase panel; details: read-out: Inhibition rate (%)
T1 construct: purchased Eurofins (KinaseProfiler)

CDKL1(h) = biological target: T2, CDKL1(h) (Homo sapiens, UniProt Q00532); assay: Eurofins kinase panel; details: read-out: Inhibition rate (%)
T2 construct: purchased Eurofins (KinaseProfiler)
T2 sequence (Q00532 whole entry): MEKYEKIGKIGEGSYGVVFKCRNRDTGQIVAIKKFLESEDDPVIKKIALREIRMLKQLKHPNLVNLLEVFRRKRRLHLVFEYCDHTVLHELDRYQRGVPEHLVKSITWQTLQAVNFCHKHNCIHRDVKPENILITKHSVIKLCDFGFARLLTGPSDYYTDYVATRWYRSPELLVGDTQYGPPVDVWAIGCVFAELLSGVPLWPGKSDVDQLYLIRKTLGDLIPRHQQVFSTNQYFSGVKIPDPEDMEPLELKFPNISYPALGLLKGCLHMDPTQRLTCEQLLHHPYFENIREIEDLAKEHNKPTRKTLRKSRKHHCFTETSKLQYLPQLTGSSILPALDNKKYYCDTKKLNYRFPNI

ChaK1(h) = biological target: T3, ChaK1(h) (Homo sapiens, UniProt Q96QT4); assay: Eurofins kinase panel; details: read-out: Inhibition rate (%)
T3 construct: purchased Eurofins (KinaseProfiler)
T3 sequence (Q96QT4 whole entry): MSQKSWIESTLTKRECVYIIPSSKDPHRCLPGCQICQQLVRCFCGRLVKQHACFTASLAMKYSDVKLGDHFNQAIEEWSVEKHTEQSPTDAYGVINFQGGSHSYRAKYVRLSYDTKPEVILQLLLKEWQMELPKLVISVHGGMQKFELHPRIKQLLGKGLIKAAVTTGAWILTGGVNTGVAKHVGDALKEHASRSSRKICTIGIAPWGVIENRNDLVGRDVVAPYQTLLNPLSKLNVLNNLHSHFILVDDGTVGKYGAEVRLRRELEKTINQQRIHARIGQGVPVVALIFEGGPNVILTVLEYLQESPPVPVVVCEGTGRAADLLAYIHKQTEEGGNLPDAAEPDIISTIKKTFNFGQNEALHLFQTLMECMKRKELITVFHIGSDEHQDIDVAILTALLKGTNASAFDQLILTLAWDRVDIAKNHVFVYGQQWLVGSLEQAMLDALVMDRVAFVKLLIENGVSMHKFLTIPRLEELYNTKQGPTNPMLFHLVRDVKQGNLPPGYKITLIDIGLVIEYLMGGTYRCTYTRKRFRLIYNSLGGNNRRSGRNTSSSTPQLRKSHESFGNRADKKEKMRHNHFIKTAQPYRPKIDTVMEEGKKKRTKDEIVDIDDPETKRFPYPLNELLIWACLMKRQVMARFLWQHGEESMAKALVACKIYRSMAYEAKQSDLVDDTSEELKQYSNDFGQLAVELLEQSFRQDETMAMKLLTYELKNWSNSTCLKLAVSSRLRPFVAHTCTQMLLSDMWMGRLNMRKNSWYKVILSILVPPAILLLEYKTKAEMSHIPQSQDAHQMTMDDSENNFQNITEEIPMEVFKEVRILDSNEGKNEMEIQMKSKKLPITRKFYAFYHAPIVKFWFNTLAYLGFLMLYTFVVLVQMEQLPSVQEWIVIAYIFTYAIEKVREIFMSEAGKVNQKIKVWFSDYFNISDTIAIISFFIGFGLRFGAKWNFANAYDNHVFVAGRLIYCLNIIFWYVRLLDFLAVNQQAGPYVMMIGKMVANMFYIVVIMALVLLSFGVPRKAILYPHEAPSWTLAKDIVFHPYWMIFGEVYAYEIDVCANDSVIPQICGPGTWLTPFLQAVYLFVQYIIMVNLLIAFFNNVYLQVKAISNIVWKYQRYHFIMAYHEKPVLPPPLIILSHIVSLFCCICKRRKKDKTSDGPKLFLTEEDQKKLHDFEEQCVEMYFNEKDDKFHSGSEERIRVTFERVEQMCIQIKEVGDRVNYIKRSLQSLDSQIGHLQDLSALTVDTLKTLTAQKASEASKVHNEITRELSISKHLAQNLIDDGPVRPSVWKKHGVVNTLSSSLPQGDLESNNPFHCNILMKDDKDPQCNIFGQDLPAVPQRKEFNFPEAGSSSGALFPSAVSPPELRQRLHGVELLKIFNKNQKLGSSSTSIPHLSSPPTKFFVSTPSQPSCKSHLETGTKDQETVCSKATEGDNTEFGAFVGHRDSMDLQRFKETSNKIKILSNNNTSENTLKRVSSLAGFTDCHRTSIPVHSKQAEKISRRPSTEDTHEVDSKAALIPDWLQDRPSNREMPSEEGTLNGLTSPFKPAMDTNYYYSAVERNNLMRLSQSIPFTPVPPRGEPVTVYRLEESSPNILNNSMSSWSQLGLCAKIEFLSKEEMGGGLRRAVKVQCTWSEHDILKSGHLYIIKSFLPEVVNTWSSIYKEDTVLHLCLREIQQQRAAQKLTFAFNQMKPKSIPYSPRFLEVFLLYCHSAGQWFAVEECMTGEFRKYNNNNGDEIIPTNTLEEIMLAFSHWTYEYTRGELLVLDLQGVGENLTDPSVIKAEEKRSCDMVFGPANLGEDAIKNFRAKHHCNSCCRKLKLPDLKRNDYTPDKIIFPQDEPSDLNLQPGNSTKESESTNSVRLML

DMPK(h) = biological target: T4, DMPK(h) (Homo sapiens, UniProt Q09013); assay: Eurofins kinase panel; details: read-out: Inhibition rate (%)
T4 construct: purchased Eurofins (KinaseProfiler)
T4 sequence (Q09013 1-629): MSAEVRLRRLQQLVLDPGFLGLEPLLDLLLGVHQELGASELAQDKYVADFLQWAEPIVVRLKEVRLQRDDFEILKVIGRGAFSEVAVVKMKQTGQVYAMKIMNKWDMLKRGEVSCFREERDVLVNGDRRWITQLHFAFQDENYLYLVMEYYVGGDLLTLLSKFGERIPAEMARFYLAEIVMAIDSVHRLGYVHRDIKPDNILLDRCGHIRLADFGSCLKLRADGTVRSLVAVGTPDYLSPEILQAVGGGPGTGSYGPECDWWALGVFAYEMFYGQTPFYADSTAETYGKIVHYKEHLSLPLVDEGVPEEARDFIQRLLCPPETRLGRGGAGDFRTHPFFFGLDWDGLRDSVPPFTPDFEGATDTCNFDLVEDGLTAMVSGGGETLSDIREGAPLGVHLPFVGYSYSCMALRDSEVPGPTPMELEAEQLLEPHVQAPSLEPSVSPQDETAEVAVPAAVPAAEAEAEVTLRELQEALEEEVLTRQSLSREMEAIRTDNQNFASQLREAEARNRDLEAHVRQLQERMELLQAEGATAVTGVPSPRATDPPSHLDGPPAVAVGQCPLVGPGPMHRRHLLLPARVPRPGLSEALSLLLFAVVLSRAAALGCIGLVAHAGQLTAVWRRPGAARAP

GSK3α(h) = biological target: T5, GSK3α(h) (Homo sapiens, UniProt P49840); assay: Eurofins kinase panel; details: read-out: Inhibition rate (%)
T5 construct: purchased Eurofins (KinaseProfiler)
T5 sequence (P49840 whole entry): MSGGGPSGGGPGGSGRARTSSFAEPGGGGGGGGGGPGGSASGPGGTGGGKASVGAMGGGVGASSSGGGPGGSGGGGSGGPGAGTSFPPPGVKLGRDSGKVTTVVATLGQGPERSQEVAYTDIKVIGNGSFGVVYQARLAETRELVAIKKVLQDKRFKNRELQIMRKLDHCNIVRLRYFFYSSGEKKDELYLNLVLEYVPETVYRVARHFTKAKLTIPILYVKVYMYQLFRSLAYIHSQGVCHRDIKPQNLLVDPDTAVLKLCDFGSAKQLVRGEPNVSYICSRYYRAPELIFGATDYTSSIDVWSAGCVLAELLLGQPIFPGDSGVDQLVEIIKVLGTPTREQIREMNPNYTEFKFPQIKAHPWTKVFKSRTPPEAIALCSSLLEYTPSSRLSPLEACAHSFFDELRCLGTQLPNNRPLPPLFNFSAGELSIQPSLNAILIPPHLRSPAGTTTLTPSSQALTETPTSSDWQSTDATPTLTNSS

Lyn(h) = biological target: T6, Lyn(h) (Homo sapiens, UniProt P07948); assay: Eurofins kinase panel; details: read-out: Inhibition rate (%)
T6 construct: purchased Eurofins (KinaseProfiler)

MST4(h) = biological target: T7, MST4(h) (Homo sapiens, UniProt Q9P289); assay: Eurofins kinase panel; details: read-out: Inhibition rate (%)
T7 construct: purchased Eurofins (KinaseProfiler)

PASK(h) = biological target: T8, PASK(h) (Homo sapiens, UniProt Q96RG2); assay: Eurofins kinase panel; details: read-out: Inhibition rate (%)
T8 construct: purchased Eurofins (KinaseProfiler)
T8 sequence (Q96RG2 whole entry): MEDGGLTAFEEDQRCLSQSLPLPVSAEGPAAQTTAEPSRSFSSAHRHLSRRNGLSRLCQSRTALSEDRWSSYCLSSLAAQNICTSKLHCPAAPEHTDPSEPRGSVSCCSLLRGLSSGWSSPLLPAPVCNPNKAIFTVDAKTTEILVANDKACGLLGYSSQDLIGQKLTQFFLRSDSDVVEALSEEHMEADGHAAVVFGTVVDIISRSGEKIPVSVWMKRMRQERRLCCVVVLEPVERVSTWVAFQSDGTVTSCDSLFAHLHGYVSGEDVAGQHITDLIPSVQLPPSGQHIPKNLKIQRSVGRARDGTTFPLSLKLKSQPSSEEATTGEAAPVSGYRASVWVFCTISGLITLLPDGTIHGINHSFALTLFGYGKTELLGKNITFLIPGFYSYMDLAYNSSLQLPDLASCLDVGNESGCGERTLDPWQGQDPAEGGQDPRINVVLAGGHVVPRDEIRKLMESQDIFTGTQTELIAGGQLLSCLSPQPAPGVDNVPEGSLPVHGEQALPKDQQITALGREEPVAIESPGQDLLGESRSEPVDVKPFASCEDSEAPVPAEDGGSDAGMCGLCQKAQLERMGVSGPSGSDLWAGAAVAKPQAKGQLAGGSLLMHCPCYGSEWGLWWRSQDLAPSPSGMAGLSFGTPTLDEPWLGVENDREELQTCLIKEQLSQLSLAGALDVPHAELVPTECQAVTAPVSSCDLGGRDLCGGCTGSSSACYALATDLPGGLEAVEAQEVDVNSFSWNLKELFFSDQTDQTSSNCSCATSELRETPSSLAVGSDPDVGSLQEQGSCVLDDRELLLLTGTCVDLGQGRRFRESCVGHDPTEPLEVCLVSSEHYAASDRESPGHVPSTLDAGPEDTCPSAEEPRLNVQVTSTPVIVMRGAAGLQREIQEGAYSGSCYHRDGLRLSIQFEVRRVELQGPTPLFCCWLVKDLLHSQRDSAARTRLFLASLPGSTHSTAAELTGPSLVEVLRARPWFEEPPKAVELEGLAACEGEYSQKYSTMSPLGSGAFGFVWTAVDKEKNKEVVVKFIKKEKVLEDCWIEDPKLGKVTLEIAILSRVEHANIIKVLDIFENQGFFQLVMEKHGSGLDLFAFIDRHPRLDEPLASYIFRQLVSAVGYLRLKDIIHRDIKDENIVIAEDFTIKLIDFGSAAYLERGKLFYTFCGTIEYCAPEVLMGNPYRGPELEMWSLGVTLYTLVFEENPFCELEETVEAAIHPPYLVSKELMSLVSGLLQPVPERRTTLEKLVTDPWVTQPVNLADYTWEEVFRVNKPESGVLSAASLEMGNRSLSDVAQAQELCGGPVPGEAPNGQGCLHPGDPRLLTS

PKCη(h) = biological target: T9, PKCη(h) (Homo sapiens, UniProt P24723); assay: Eurofins kinase panel; details: read-out: Inhibition rate (%)
T9 construct: purchased Eurofins (KinaseProfiler)

CDK13/cyclinK(h) = biological target: T10, CDK13/cyclinK(h) (Homo sapiens, UniProt Q14004); assay: Eurofins kinase panel; details: read-out: Inhibition rate (%)
T10 construct: purchased Eurofins (KinaseProfiler)
Protocol: (§1) Active FGFR1–4, VEGFR1, KDR, VEGFR3, PDGFRα and PDGFRβ proteins were purchased from Eurofins (Fremont, United States), and kinase activity was assessed using ELISA, as previously reported. The broader kinase selectivity profile of 3D185 (0.01, 0.1, and 1 μM) was determined by Eurofins by screening the compound against 372 human recombinant kinases. Increasing concentrations of ATP were diluted for the kinase reaction in the ATP competition assay. CSF-1R kinase activity was analyzed using the Z’-LYTE™ Kinase Assay Kit (Thermo Fisher, United States). The assay formats are described in the SelectScreen Kinase Profiling Service Zlyte protocol. IC50 values were calculated by dose-response curve fitting using Prism (Graph Pad).

PRP4(h) = biological target: T11, PRP4(h) (Homo sapiens, UniProt Q13523); assay: Eurofins kinase panel; details: read-out: Inhibition rate (%)
T11 construct: purchased Eurofins (KinaseProfiler)
Protocol: as §1

STK32B(h) = biological target: T12, STK32B(h) (Homo sapiens, UniProt Q9NY57); assay: Eurofins kinase panel; details: read-out: Inhibition rate (%)
T12 construct: purchased Eurofins (KinaseProfiler)

Tie2 (h) = biological target: T13, Tie2 (h) (Homo sapiens, UniProt Q02763); assay: Eurofins kinase panel; details: read-out: Inhibition rate (%)
T13 construct: purchased Eurofins (KinaseProfiler)

WNK2(h) = biological target: T14, WNK2(h) (Homo sapiens, UniProt Q9Y3S1); assay: Eurofins kinase panel; details: read-out: Inhibition rate (%)
T14 construct: purchased Eurofins (KinaseProfiler)

WNK3(h) = biological target: T15, WNK3(h) (Homo sapiens, UniProt Q9BYP7); assay: Eurofins kinase panel; details: read-out: Inhibition rate (%)
T15 construct: purchased Eurofins (KinaseProfiler)

FGFR4 = biological target: T16, FGFR4 (Homo sapiens, UniProt P22455); assay: Kinase inhibition assay (ELISA); details: mean ± SD
T16 construct: purchased Eurofins (Fremont, United States)

CSF-1R = CSF-1R (Homo sapiens, UniProt P07333); assay: Z'-LYTE kinase assay; details: mean ± SD
[1] = estimated from 372-kinase panel

Chain of FGFR1(V561M)(h) (P11362 22-822 V561M): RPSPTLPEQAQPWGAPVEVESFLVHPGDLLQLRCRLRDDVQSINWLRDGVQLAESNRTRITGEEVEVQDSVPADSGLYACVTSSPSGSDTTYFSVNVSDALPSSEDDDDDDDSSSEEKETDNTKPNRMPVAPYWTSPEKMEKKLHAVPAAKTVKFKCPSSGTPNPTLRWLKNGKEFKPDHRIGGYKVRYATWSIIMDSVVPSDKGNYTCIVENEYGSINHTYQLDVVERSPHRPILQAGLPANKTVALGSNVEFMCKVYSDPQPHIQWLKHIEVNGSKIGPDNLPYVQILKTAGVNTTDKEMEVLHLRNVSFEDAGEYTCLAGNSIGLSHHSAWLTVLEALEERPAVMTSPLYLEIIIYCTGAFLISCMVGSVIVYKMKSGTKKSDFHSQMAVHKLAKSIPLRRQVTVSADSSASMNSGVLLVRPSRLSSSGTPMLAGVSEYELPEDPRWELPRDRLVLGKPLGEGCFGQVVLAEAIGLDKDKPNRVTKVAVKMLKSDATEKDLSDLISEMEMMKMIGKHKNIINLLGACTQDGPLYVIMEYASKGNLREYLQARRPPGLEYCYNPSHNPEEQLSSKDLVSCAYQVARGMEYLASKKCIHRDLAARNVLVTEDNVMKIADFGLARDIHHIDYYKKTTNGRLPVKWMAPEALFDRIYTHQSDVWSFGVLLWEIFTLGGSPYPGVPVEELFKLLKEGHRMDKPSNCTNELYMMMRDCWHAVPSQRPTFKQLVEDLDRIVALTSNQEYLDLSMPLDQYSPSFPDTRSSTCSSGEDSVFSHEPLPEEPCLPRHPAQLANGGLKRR

## COc1cc(OC)c(Cl)c(-c2ccc3c(NC(=O)c4ccc(N5CCNC(C)(C)C5)cc4)n[nH]c3n2)c1Cl [3D185]
FGFR1(V561M)(h); [1]
  IC50: < 10 nM
FGFR1(V561M)(h); read-out: Inhibition rate (%)
  inhibition at 0.01 µM: 58%
  inhibition at 0.1 µM: 94%
  inhibition at 1 µM: 100%
FGFR2(N549H)(h); [1]
  IC50: < 10 nM
FGFR2(N549H)(h); read-out: Inhibition rate (%)
  inhibition at 0.01 µM: 96%
  inhibition at 0.1 µM: 98%
  inhibition at 1 µM: 100%
CDK12/cyclinK(h); 10 nM
  inhibition at 0.01 µM: -6%
CDK12/cyclinK(h); 100 nM
  inhibition at 0.1 µM: 4%
CDK12/cyclinK(h); 1000 nM
  inhibition at 1 µM: 7%
CDKL1(h); 10 nM
  inhibition at 0.01 µM: 3%
CDKL1(h); 100 nM
  inhibition at 0.1 µM: -5%
CDKL1(h); 1000 nM
  inhibition at 1 µM: 0%
ChaK1(h); 10 nM
  inhibition at 0.01 µM: 2%
ChaK1(h); 100 nM
  inhibition at 0.1 µM: -10%
ChaK1(h); 1000 nM
  inhibition at 1 µM: 8%
DMPK(h); 10 nM
  inhibition at 0.01 µM: 2%
DMPK(h); 100 nM
  inhibition at 0.1 µM: 3%
DMPK(h); 1000 nM
  inhibition at 1 µM: 2%
GSK3α(h); 10 nM
  inhibition at 0.01 µM: 10%
GSK3α(h); 100 nM
  inhibition at 0.1 µM: 4%
GSK3α(h); 1000 nM
  inhibition at 1 µM: -5%
Lyn(h); 10 nM
  inhibition at 0.01 µM: 8%
Lyn(h); 100 nM
  inhibition at 0.1 µM: 81%
Lyn(h); 1000 nM
  inhibition at 1 µM: 98%
MST4(h); 10 nM
  inhibition at 0.01 µM: 6%
MST4(h); 100 nM
  inhibition at 0.1 µM: 27%
MST4(h); 1000 nM
  inhibition at 1 µM: 70%
PASK(h); 10 nM
  inhibition at 0.01 µM: -15%
PASK(h); 100 nM
  inhibition at 0.1 µM: 1%
PASK(h); 1000 nM
  inhibition at 1 µM: 10%
PKCη(h); 10 nM
  inhibition at 0.01 µM: -10%
PKCη(h); 100 nM
  inhibition at 0.1 µM: -1%
PKCη(h); 1000 nM
  inhibition at 1 µM: -9%
CDK13/cyclinK(h); 10 nM
  inhibition at 0.01 µM: -16%
CDK13/cyclinK(h); 100 nM
  inhibition at 0.1 µM: 8%
CDK13/cyclinK(h); 1000 nM
  inhibition at 1 µM: 1%
PRP4(h); 10 nM
  inhibition at 0.01 µM: -8%
PRP4(h); 100 nM
  inhibition at 0.1 µM: -9%
PRP4(h); 1000 nM
  inhibition at 1 µM: -1%
STK32B(h); 10 nM
  inhibition at 0.01 µM: 1%
STK32B(h); 100 nM
  inhibition at 0.1 µM: 1%
STK32B(h); 1000 nM
  inhibition at 1 µM: 0%
Tie2 (h); 10 nM
  inhibition at 0.01 µM: 19%
Tie2 (h); 100 nM
  inhibition at 0.1 µM: 64%
Tie2 (h); 1000 nM
  inhibition at 1 µM: 95%
WNK2(h); 10 nM
  inhibition at 0.01 µM: 0%
WNK2(h); 100 nM
  inhibition at 0.1 µM: -1%
WNK2(h); 1000 nM
  inhibition at 1 µM: 22%
WNK3(h); 10 nM
  inhibition at 0.01 µM: -7%
WNK3(h); 100 nM
  inhibition at 0.1 µM: 12%
WNK3(h); 1000 nM
  inhibition at 1 µM: 71%
FGFR4
  IC50: 51.4 nM
CSF-1R
  IC50: 3.8 nM
